Values of other authors as cited in patent publication US4239780A, “Phospholipase A2 inhibition” (The Upjohn Company, priority 1979, dated 1980).

Tested on: phospholipase A2 from venom of Russel Viper
Details: enzyme from Russel Viper venom; cited from earlier work

Structure (SMILES): COc1ccc2c(c1)c(CC(=O)O)c(C)n2C(=O)c1ccc(Cl)cc1 [indomethacin, Indomethacin]
- inhibition of phospholipase A2: inactive
